Measurements as given in paper PMC10709440, “High-throughput ligand profile characterization in novel cell lines expressing seven heterologous insect olfactory receptors for the detection of volatile plant biomarkers” (Scientific Reports, 2023).
Like-named read-outs stand apart in the source and are kept apart here.

Experiments:
Drosophila OR13a = target: T1, Drosophila OR13a (Drosophila melanogaster, UniProt Q9VXL0); assay: Calcium ion fluorescence (GCaMP6) assay, OR13a stable HEK293 cell line; assay type: cell-based; details: for OR13a response (VUAA1-normalized) at 1 μM / OR13a response (VUAA1-normalized) at 10 μM / OR13a response (VUAA1-normalized) at 100 μM: OR13a cell line
T1 construct: expressed in transfected cells
T1 sequence (Q9VXL0 1-418): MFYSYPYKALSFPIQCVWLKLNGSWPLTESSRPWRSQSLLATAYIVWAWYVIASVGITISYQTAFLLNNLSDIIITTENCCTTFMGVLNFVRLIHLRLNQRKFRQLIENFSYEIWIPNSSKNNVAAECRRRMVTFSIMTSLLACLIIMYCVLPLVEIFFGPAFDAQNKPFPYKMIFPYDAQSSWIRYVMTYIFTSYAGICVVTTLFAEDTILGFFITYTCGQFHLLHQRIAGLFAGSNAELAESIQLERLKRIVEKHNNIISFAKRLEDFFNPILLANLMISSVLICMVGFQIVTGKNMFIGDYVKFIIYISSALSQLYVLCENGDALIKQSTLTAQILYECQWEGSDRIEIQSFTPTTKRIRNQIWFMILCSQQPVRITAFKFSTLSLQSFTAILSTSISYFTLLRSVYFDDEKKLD
T1 sequence (Q9VNB5 1-486 partner): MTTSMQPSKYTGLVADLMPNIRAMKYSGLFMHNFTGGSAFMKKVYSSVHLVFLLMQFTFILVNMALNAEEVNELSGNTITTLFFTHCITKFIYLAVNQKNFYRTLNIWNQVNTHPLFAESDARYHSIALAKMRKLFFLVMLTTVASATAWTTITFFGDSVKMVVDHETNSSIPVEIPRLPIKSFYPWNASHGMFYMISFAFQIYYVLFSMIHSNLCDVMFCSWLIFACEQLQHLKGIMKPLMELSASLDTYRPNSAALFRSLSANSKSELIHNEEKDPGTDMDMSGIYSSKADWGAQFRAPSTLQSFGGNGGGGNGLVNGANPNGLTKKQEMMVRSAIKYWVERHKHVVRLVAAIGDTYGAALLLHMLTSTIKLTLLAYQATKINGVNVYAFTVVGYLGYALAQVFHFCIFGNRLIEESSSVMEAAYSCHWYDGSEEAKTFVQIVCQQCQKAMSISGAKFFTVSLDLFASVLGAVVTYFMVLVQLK
In short: (§1)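 Responses are VUAA1-normalized ΔF: each VOC-evoked calcium signal, (FMAX−F0)/F0 over 30 s after injection, divided by the same line's mean 50 µM VUAA1 response. Cells were doxycycline-induced HEK293 with GCaMP6 and the cognate Drosophila OR, in HEPES buffer pH 7.3; ligands tested 0.01–100 μM.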

Drosophila OR49b = target: T2, Drosophila OR49b (Drosophila melanogaster, UniProt Q9V6H2); assay: cell-based; details: for Average response / OR49b response (VUAA1-normalized) at 1 μM / OR49b response (VUAA1-normalized) at 10 μM / OR49b response (VUAA1-normalized) at 100 μM: OR49b cell line; for Average response: mean of biological replicates; for activation at 1 µM / activation at 10 µM / activation at 100 µM: HEK293
T2 construct: expressed in transfected cells
T2 sequence (Q9V6H2 1-375): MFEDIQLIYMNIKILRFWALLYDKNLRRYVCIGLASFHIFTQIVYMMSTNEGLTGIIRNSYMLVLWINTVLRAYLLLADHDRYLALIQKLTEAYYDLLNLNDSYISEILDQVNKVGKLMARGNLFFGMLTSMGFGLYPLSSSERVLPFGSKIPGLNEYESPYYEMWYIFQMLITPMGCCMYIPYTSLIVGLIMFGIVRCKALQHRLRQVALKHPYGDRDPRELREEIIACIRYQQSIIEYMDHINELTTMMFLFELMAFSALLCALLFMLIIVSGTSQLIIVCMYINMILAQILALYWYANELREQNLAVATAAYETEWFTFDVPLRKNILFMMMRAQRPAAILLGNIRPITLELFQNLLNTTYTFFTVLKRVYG
T2 sequence (Q9VNB5 1-486 partner): T1 sequence (Q9VNB5 1-486 partner)
In short: as §1

[1] = ligand concentration 1 (unit not given), threshold 0.05, below shown as 0
[2] = ligand concentration 10 (unit not given), threshold 0.05, below shown as 0
[3] = ligand concentration 100 (unit not given), threshold 0.05, below shown as 0
[4] = HEK293, read-out: OR13a Average response (VUAA1-normalized), 1 μM VOC, 50 μM VUAA1 = 1, responses not exceeding 0.05 considered 0
[5] = HEK293, read-out: OR13a Average response (VUAA1-normalized), 10 μM VOC, 50 μM VUAA1 = 1, responses not exceeding 0.05 considered 0
[6] = HEK293, read-out: OR13a Average response (VUAA1-normalized), 100 μM VOC, 50 μM VUAA1 = 1, responses not exceeding 0.05 considered 0
[7] = ligand concentration 100 (unit not given), 0.05 threshold, values below shown as 0

| SMILES | DF norm AVERAGE OR13a (Drosophila OR13a; [1]) | DF norm AVERAGE OR13a (Drosophila OR13a; [2]) | DF norm AVERAGE OR13a (Drosophila OR13a; [3]) | Average response (Drosophila OR49b; odorant cc. 1 µM) | Average response (Drosophila OR49b; odorant cc. 10 µM) | Average response (Drosophila OR49b; odorant cc. 100 µM) | DF norm AVERAGE OR49b (Drosophila OR49b; [1]) | DF norm AVERAGE OR49b (Drosophila OR49b; [2]) | DF norm AVERAGE OR49b (Drosophila OR49b; [3]) | OR13a response (VUAA1-normalized) at 1 μM (Drosophila OR13a; VOC concentration 1 μM) | OR13a response (VUAA1-normalized) at 10 μM (Drosophila OR13a; VOC concentration 10 μM) | OR13a response (VUAA1-normalized) at 100 μM (Drosophila OR13a; VOC concentration 100 μM) | OR49b response (VUAA1-normalized) at 1 μM (Drosophila OR49b; VOC concentration 1 μM) | OR49b response (VUAA1-normalized) at 10 μM (Drosophila OR49b; VOC concentration 10 μM) | OR49b response (VUAA1-normalized) at 100 μM (Drosophila OR49b; VOC concentration 100 μM) | activation at 1 µM (Drosophila OR13a; [4]) [%] | activation at 10 µM (Drosophila OR13a; [5]) [%] | activation at 100 µM (Drosophila OR13a; [6]) [%] | also measured |
| --- | --- | --- | --- | --- | --- | --- | --- | --- | --- | --- | --- | --- | --- | --- | --- | --- | --- | --- | --- |
| CC(C)=CCC/C(C)=C/CC/C(C)=C/CO [e,e-farnesol] | 0 | 0 | 0 | 0.00 | 0.06 | 0.00 | 0 | 0.06141 | 0 |  |  |  |  |  |  |  |  |  | OR13a Average response (VUAA1-normalized) (Drosophila OR13a; 1 μM VOC, 50 μM VUAA1 = 1, responses not exceeding 0.05 considered 0): 0.00; OR13a Average response (VUAA1-normalized) (Drosophila OR13a; 10 μM VOC, 50 μM VUAA1 = 1, responses not exceeding 0.05 considered 0): 0.033; OR13a Average response (VUAA1-normalized) (Drosophila OR13a; 100 μM VOC, 50 μM VUAA1 = 1, responses not exceeding 0.05 considered 0): 0.026; OR13a response (VUAA1-normalized response) (Drosophila OR13a; VOC concentration 1 μM): 0.00; OR13a response (VUAA1-normalized response) (Drosophila OR13a; VOC concentration 10 μM): 0.00; OR13a response (VUAA1-normalized response) (Drosophila OR13a; VOC concentration 100 μM): 0.00; OR49b response (VUAA1-normalized response) (Drosophila OR49b; VOC concentration 1 μM): 0.00; OR49b response (VUAA1-normalized response) (Drosophila OR49b; VOC concentration 10 μM): 0.06; OR49b response (VUAA1-normalized response) (Drosophila OR49b; VOC concentration 100 μM): 0.00 |
| CC/C=C\CCOC(C)=O [Z-3-hexenyl acetate] |  |  |  |  |  |  |  |  |  | 0.00 | 0.00 | 0.09 | 0.00 | 0.00 | 0.00 |  |  |  |  |
| CCOC(=O)CC [ethyl propionate] | 0 | 0 | 0 | 0.00 | 0.00 | 0.0428 | 0 | 0 | 0 |  |  |  |  |  |  | 0 | 0 | 0 | activation at 1 µM (Drosophila OR13a; HEK293, read-out: OR13a response (VUAA1-normalized response), VOC concentration 1 μM): 0%; activation at 10 µM (Drosophila OR13a; HEK293, read-out: OR13a response (VUAA1-normalized response), VOC concentration 10 μM): 0%; activation at 100 µM (Drosophila OR13a; HEK293, read-out: OR13a response (VUAA1-normalized response), VOC concentration 100 μM): 0%; activation at 1 µM (Drosophila OR49b; VOC concentration 1 μM, read-out: OR49b response (VUAA1-normalized response)): 0%; activation at 10 µM (Drosophila OR49b; VOC concentration 10 μM, read-out: OR49b response (VUAA1-normalized response)): 0%; activation at 100 µM (Drosophila OR49b; VOC concentration 100 μM, read-out: OR49b response (VUAA1-normalized response)): 0% |
| CC/C=C\CCO [Z-3-hexenol] |  |  |  |  |  |  |  |  |  | 0.00 | 0.06 | 0.00 | 0.00 | 0.00 | 0.00 |  |  |  |  |
| COC(=O)c1ccccc1O [methyl salicylate] | 0 | 0 | 0.213 | 0.0269 | 0.00333 | 0.12 | 0 | 0 | 0.1238 | 0.00 | 0.00 | 0.21 | 0.00 | 0.00 | 0.12 | 0 | 1 | 21 | activation at 1 µM (Drosophila OR49b; 1 μM VOC, 50 μM VUAA1 = 1, read-out: OR49b Average response (VUAA1-normalized)): 3%; activation at 10 µM (Drosophila OR49b; 10 μM VOC, 50 μM VUAA1 = 1, read-out: OR49b Average response (VUAA1-normalized)): 0%; activation at 100 µM (Drosophila OR49b; 100 μM VOC, 50 μM VUAA1 = 1, read-out: OR49b Average response (VUAA1-normalized)): 12% |
| CCCCCCCCC=O [nonanal] | 0 | 0 | 0 | 0.00 | 0.00 | 0.00 | 0 | 0 | 0 | 0.00 | 0.00 | 0.00 | 0.00 | 0.00 | 0.00 | 0 | 0 | 0 |  |
| CCCCCCCCCCCCCC [tetradecane] |  |  |  | 0.07 | 0.05 | 0.0348 |  |  |  | 0.00 | 0.00 | 0.00 | 0.07 | 0.05 | 0.00 | 2.63 | 1.68 | 0 | DF norm AVERAGE OR13a (Drosophila OR13a; ligand concentration 1 (unit not given), 0.05 threshold, values below shown as 0): 0; DF norm AVERAGE OR13a (Drosophila OR13a; ligand concentration 10 (unit not given), 0.05 threshold, values below shown as 0): 0; DF norm AVERAGE OR13a (Drosophila OR13a; [7]): 0; DF norm AVERAGE OR49b (Drosophila OR49b; ligand concentration 1 (unit not given), […]): 0.06864; DF norm AVERAGE OR49b (Drosophila OR49b; ligand concentration 10 (unit not given), […]): 0.05202; DF norm AVERAGE OR49b (Drosophila OR49b; [7]): 0 |
